For assay [1], the system named is 52 bacteria isolated from subgingival plaque. The settings on record: cited from earlier work.
Assay [2] has as its system supragingival bacterial plaque and gingival inflammation. The conditions noted are these: clinical results, mouthwash; cited from earlier work.
The next assay relates to periodontal disease. Put plainly: Concurrent cohort study of systemic statin therapy: periodontal clinical parameters (BOP, PISA). It is filed as in vivo, human. The conditions noted are these: patients taking statins (Atorvastatin 20 mg every 24 hours, systemic); 6 months. As to the method: A concurrent cohort study was perform, with two groups of patients, some exposed to statin therapy and some not exposed to statin therapy. Patient submitted to statin therapy received Atorvastatin 20 mg, every 24 hours, indicated as part of a preventive cardiologic therapy.
The eligible patients were those that meet the following inclusion criteria: a) informed consent, b) over 35 years, c) with at least 14 natural teeth in the mouth (excluding third molars), d) have some degree of periodontal disease.
Measures were taken when starting the study and after 6 months for both groups of patients. The examination included probing depth (PD), clinical attachment level (CAL) and bleeding on probing index (BOP).
Periodontal probing was performed to each tooth at 6 sites (mesiovestibular, mediovestibular, distovestibular, mesiolingual/palatal, mediolingual/palatal and distolingual/palatal). CAL was defined as the distance from the cementoenamel junction to the pocket bottom. […] BI was determined by assigning a “+” sign to the presence of bleeding on probing in vestibular and/or palatal of the examined tooth and with a “−” sign to the absence of bleeding. […]
Periodontal Inflamed Surface Area (PISA) was also calculated using data insertion loss, gingival recession and bleeding on probing. […]

Assay [3] has as its system IL-6, IL-10, C-reactive protein (CRP) in GCF. Put plainly: Cohort study of systemic statin therapy: inflammation biomarkers in gingival crevicular fluid by Elisa. Type of assay: in vivo, human. The text has this: Measurements at Gingival Crevicular Fluid Level (GCF).
Upon confirmation of periodontal diagnosis, samplings of GCF were taken by standard procedures. These are described below:
Two sites were selected from each quadrant which PD is higher. After isolating the tooth with cotton balls, supra-gingival plaque was removed with a curette without touching the gingival margin. Crevicular site was gently dried with air. The GCF was collected with paper cones. The paper points were inserted into the sulcus/pocket until feeling a medium resistance and were left for 40 seconds. Cones contaminated with saliva or blood were excluded. Later the paper cones were placed in a tube. GCF samples were storage at −80° C.
IL-6, IL-10, and C-reactive protein (CRP) were measured as inflammation biomarkers. Measurements were performed through Elisa test. Measurements were performed at the start of the study and after 6 months for both groups of patients, with and without indication of statins.

Assay [4] relates to Human PBMC stimulated with PHA (T cells). Put plainly: Proliferation of T cells evaluation (CellTrace Violet, flow cytometry). It is filed as cell-based. The settings on record: PHA 25 μg/ml, 4 days; FIG. 2. The protocol:
The specific objectives of this assay were to evaluate the degree of cell toxicity (cell viability measured in dead % of T cells) and the level of T cell proliferation under a specific stimulus in the presence of: Human PBMC derived from healthy control donors were stimulated with PHA, 25 μg/ml, in presence or absence of Atorvastatin (AT) in various formulations: irradiated (ATi) or non-irradiated (ATni) Atorvastatin, soluble or toothpaste. […] Later cells were harvested and stained with anti-CD4 antibody conjugated to FITC and the samples were analyzed by flow cytometer Beckman Coulter XL.
In general terms: A flow cytometer gives signals particle by particle.

For assay [5], the system named is release of cytokines and neutrophil adhesion to venous endothelium. The settings on record: pretreatment; patients undergoing coronary artery bypass surgery, bypass, or cardiopulmonary graft; cited from earlier work.

Results on 4 molecules are retold here after patent US10918620B2, “Use of statins for periodontal disease and bone regeneration” (priority 2012, dated 2021).

With `[H]/N=C(\N/C(=N/[H])NCCCCCCNC(=N)NC(=N)Nc1ccc(Cl)cc1)Nc1ccc(Cl)cc1` [chlorhexidine], in assay [1], the antimicrobial resistance entry is “has not been detected” and the “concentration at which all bacteria isolated from patients with periodontitis were inhibited” value is 250 mg/mL. In assay [2], the “decreased levels of gingival inflammation” value was 45% and the “decreased levels of supragingival bacterial plaque” value is given as 55%.

Consider `CC(C)c1c(C(=O)Nc2ccccc2)c(-c2ccccc2)c(-c2ccc(F)cc2)n1CC[C@@H](O)C[C@@H](O)CC(=O)O` [statins, Atorvastatin], for which, in the assay on periodontal disease, the “reduction of area of periodontal inflammation measured by the PISA index” value was 58.66% and the “reduction of bleeding on probing index (BOP)” value is reported as 60.89%. Moreover, in assay [3] (patients consuming statins (Atorvastatin 20 mg every 24 hours), patients without statins 4.8 pg/ml), the “levels of IL-6 in GCF, average” value stood at 0.47 pg/mL. Further, in assay [3] (patients consuming statins vs patients without statins use), the “reduction of IL-6 in GCF” value is 90.1%. Besides, the “levels of IL-10 in GCF” value in assay [3] (patients taking statins, average in patients not consuming statins 1.23 pg/ml) is recorded as “no IL-10 could be detected”. In addition, the “reduction of levels of CRP (C-reactive protein) in GCF” value in assay [3] (patients taking systemic statins) stood at 93%.

Take `CC(C)c1c(C(=O)Nc2ccccc2)c(-c2ccccc2)c(-c2ccc(F)cc2)n1CC[C@@H](O)C[C@@H](O)CC(=O)O` [Soluble ATi, Atorvastatin]: the “T cell proliferation (immunomodulatory behavior)” value in assay [4] was “reduces immune cell proliferation”.

Consider `CC(C)c1c(C(=O)Nc2ccccc2)c(-c2ccccc2)c(-c2ccc(F)cc2)n1CC[C@@H](O)C[C@@H](O)CC(=O)O` [atorvastatin], for which the “release of cytokines and neutrophil adhesion to venous endothelium” value in assay [5] was “significantly reduce the release of cytokines and neutrophil adhesion to venous endothelium”.
